Laboratory results as given in patent publication US8343923B2, “Use of notch signaling regulators for modulating osteogenesis” (Washington University, priority 2007, dated 2013).

What was measured:
Format in all cases: cell-based, mouse
[1] = test system: bone marrow mesenchymal progenitors (CFU-Fs) in wild type BMSCs; test: CFU-F assay of wild type BMSCs in the presence or absence of DAPT
From the text: FIG. 8B depicts AP staining after 8 days in osteogenic medium following CFU-F assays. FIG. 8C illustrates AP quantitative assay for high-density BMSCs cultures in osteogenic medium. FIG. 8D is phase-contrast pictures of high-density BMSCs cultured in adipogenic medium. Note the lipid droplets in wild type cells. […] The arrow denotes a typical “type I” CFU-F. Cell cultures. Bone marrow harvests and high-density cultures were done as described in the art. For CFU-F assays, single-cell suspension of nucleated bone marrow cells were seeded at 3×10^6 on T25 flasks and cultured in DMEM (Invitrogen) containing 20% lot-selected FBS (Hyclone) and 1-Thioglycerol (Sigma) for 11-14 days without change of medium. For CFU-F assays, colonies with more than 50 small, round or spindle-shaped cells in direct contact with each other were scored as “type I” CFU-Fs. Clusters with more than 100 cells including large cells with multiple processes were counted as “type II” CFU-Fs. Differentiation of BMSCs was induced by either osteogenic (50 μg/ml ascorbic acid, 50 mM β-glycerol-2-phosphate) or adipogenic (0.5 μMIBMX, 60 μM indomethacine, 0.5 μM hydrocortisone) DMEM containing 10% FBS (Atlas). […] NICD was detected by Western analyses using a specific antibody (Cell Signaling). […] It was also assessed whether Notch signaling could directly control bone marrow mesenchymal progenitors and their differentiation. […]

[2] = test system: "type II" CFU-Fs from wild type BMSCs; test: AP staining immediately following CFU-F assays; details: assayed directly for AP activity without further culture in osteogenic conditions; DAPT-treated samples
Procedure: FIG. 8G is representative of “type II” CFU-Fs stained for AP. FIG. 8H illustrates an AP quantitative assay for high-density wild type BMSCs cultures in osteogenic medium with or without DAPT. (*: p<0.05). Cell cultures. Bone marrow harvests and high-density cultures were done as described in the art. For CFU-F assays, single-cell suspension of nucleated bone marrow cells were seeded at 3×10^6 on T25 flasks and cultured in DMEM (Invitrogen) containing 20% lot-selected FBS (Hyclone) and 1-Thioglycerol (Sigma) for 11-14 days without change of medium. For CFU-F assays, colonies with more than 50 small, round or spindle-shaped cells in direct contact with each other were scored as “type I” CFU-Fs. Clusters with more than 100 cells including large cells with multiple processes were counted as “type II” CFU-Fs. Differentiation of BMSCs was induced by either osteogenic (50 μg/ml ascorbic acid, 50 mM β-glycerol-2-phosphate) or adipogenic (0.5 μMIBMX, 60 μM indomethacine, 0.5 μM hydrocortisone) DMEM containing 10% FBS (Atlas). Primary osteoblasts were isolated from long bones by incubating cleaned small bone chips to allow cells to migrate onto culture dishes. NICD was detected by Western analyses using a specific antibody (Cell Signaling). It was also assessed whether Notch signaling could directly control bone marrow mesenchymal progenitors and their differentiation. […]

[3] = test system: wild type BMSCs; test: AP quantitative assay for high-density wild type BMSCs cultures in osteogenic medium; details: wild type BMSCs at higher density under osteogenic conditions, with versus without DAPT; p<0.05
Procedure: FIG. 8G is representative of “type II” CFU-Fs stained for AP. FIG. 8H illustrates an AP quantitative assay for high-density wild type BMSCs cultures in osteogenic medium with or without DAPT. (*: p<0.05).
Cell cultures. Bone marrow harvests and high-density cultures were done as described in the art. For CFU-F assays, single-cell suspension of nucleated bone marrow cells were seeded at 3×10^6 on T25 flasks and cultured in DMEM (Invitrogen) containing 20% lot-selected FBS (Hyclone) and 1-Thioglycerol (Sigma) for 11-14 days without change of medium. For CFU-F assays, colonies with more than 50 small, round or spindle-shaped cells in direct contact with each other were scored as “type I” CFU-Fs. Clusters with more than 100 cells including large cells with multiple processes were counted as “type II” CFU-Fs. Differentiation of BMSCs was induced by either osteogenic (50 μg/ml ascorbic acid, 50 mM β-glycerol-2-phosphate) or adipogenic (0.5 μMIBMX, 60 μM indomethacine, 0.5 μM hydrocortisone) DMEM containing 10% FBS (Atlas). Primary osteoblasts were isolated from long bones by incubating cleaned small bone chips to allow cells to migrate onto culture dishes. NICD was detected by Western analyses using a specific antibody (Cell Signaling).
It was also assessed whether Notch signaling could directly control bone marrow mesenchymal progenitors and their differentiation. […]

Compound: C[C@H](NC(=O)Cc1cc(F)cc(F)c1)C(=O)N[C@H](C(=O)OC(C)(C)C)c1ccccc1 [DAPT, N—[N-(3,5-Difluorophenacetyl)-L-alanyl]-S-phenylglycine t-butyl ester]
- number of "type II" CFU-Fs ([1]; 1 μM DAPT, number not altered versus untreated): ~20 per 106 marrow cells
- effect on "type I" CFU-Fs ([1]; low-density culture, 1 μM DAPT (FIG. 8 legend)): completely eliminated
- AP staining of "type II" CFU-Fs [2]: nearly all “type II” CFU-Fs from the DAPT-treated samples stained strongly positive
- AP expression [3]: significantly increased
